Patent publication US20040086901A1, “Database for analyzing gene function and method of analyzing gene function by dspa” (priority 2000, published 2004)

Legend:
Assay type in all cases: cell-based, mouse
[1] = tested on: NIH3T3 cells overexpressing v-src; test: MTT cell viability, v-src overexpressing cells vs parental line; conditions: v-src high-expressing cells / parental cell line, 3 to 4 days
Method: (§1) With regard to the function-known genes, the genes shown in the left column of Table 2 were used. With regard to the drugs, those shown in Table 1 were dissolved in DMSO to an extent of 100-fold of the maximum concentration for the search of the drugs and used. With regard to the cells, incubated NIH3T3 or ras-NIH3T3 cells were used.
(§2) Full-length cDNA of each function-known genes was incorporated into an expression vector (pRc-CMV, etc.) and transfected into NIH3T3 cells by a common method. Transformed cells were isolated using the resistance to G-418 as an index and the expression of the transfected gene in each cell was investigated by Western blotting method to select a highly expressing line.
(§3) Cell viabilities were measured according to the following procedures.
(§4) 1) From the 2nd to the 11th rows of a 96-well plate were filled with DMEM (50 μl). The 12th row was filled with 100 μl of DMEM.
(§5) 2) The 1st row was filled with 98 μl of DMEM.
(§6) 3) Drugs (2 μl each) were added into the 1st row.
(§7) 4) Continuous double-dilution was conducted from the 1st to the 9th rows. Fifty μl were taken out from the 9th row and discarded. The plate was preserved in a CO2 incubator.
(§8) 5) Cells (each high-expressing cells and the parental cell line) were detached from the medium using a trypsin solution, suspended in 10% CS-DMEM and transferred to a test tube and cell numbers (cell/ml) were counted.
(§9) 6) The cells were diluted to a concentration of 1×10^5 cells/ml, and 50 μl of the cell suspension were added to the 1st to the 11th rows of the plate followed by gently stirring.
(§10) 7) The plate was transferred to the CO2 incubator and incubated for 3 to 4 days.
(§11) 8) MTT (5 mg/ml in PBS) (10 μl) was added to the 1st to the 12th rows of the plate and incubated in the CO2 incubator at 37° C. for 4 hours.
(§12) 9) A reaction stop solution (0.04N HCl in isopropanol) (150 μl) was added followed by mixing well and being allowed to stand at room temperature for about 2 hours.
(§13) 10) Coloration of formazan which was a metabolite of the MTT dye was measured using a microplate reader. The measurement wavelength was 574 nm and the reference wavelength was 655 nm. The 10th and the 11th rows of the plate were 100% controls and the 12th row was a 0% control.
(§14) As an index for the sensitivity of highly gene-expressing cells and the parental cell line to various drugs, each of the IC40 values thereof was specified and ratios of the IC40 values were calculated. FIG. 2 and FIG. 3 are the examples where ratios of IC40 values were calculated from a curve showing the dependency on the concentration of the chemical versus the viability. After that, logarithmic values of ratios of IC40 values were calculated from each gene.

[2] = tested on: NIH3T3 cells overexpressing erbB2; test: MTT cell viability, erbB2 overexpressing cells vs parental line; conditions: erbB2 high-expressing cells / parental cell line, 3 to 4 days
Method: as §1, §2, §3, §4, §5, §6, §7, §8, §9, §10, §11, §12, §13, §14

[3] = tested on: NIH3T3 cells overexpressing Bax; test: MTT cell viability, Bax overexpressing cells vs parental line; conditions: 3 to 4 days
Method: as §1, §2, §3, §4, §5, §6, §7, §8, §9, §10, §11, §12, §13
(§15) As an index for the sensitivity of highly gene-expressing cells and the parental cell line to various drugs, each of the IC40 values thereof was specified and ratios of the IC40 values were calculated. […] After that, logarithmic values of ratios of IC40 values were calculated from each gene.

[4] = tested on: NIH3T3 cells overexpressing TK; test: MTT cell viability, TK overexpressing cells vs parental line; conditions: TK high-expressing cells / parental cell line, 3 to 4 days
Method: as §1, §2, §3, §4, §5, §6, §7, §8, §9, §10, §11, §12, §13, §14

[5] = tested on: NIH3T3 cells overexpressing cAMP-PK-CS; test: MTT cell viability, cAMP-PK-CS overexpressing cells vs parental line; conditions: cAMP-PK-CS high-expressing cells / parental cell line, 3 to 4 days
Method: as §1, §2, §3, §4, §5, §6, §7, §8, §9, §10, §11, §12, §13, §15

[6] = tested on: NIH3T3 cells overexpressing calpastatin; test: MTT cell viability, calpastatin overexpressing cells vs parental line; conditions: calpastatin high-expressing cells / parental cell line, 3 to 4 days
Method: as §1, §2, §3, §4, §5, §6, §7, §8, §9, §10, §11, §12, §13, §14

[7] = tested on: NIH3T3 cells overexpressing CP-antisense; test: MTT cell viability, CP-antisense cells vs parental line; conditions: 3 to 4 days
Method: as §1, §2, §3, §4, §5, §6, §7, §8, §9, §10, §11, §12, §13, §14

[8] = tested on: NIH3T3 cells overexpressing DAN; test: MTT cell viability, DAN overexpressing cells vs parental line; conditions: DAN high-expressing cells / parental cell line, 3 to 4 days
Method: as §1, §2, §3, §4, §5, §6, §7, §8, §9, §10, §11, §12, §13, §14

[9] = tested on: NIH3T3 cells overexpressing cystatin alpha; test: MTT cell viability, cystatin alpha overexpressing cells vs parental line; conditions: cystatin alpha high-expressing cells / parental cell line, 3 to 4 days
Method: as §1, §2, §3, §4, §5, §6, §7, §8, §9, §10, §11, §12, §13, §14

[10] = tested on: NIH3T3 cells overexpressing RhoA; test: MTT cell viability, RhoA overexpressing cells vs parental line; conditions: RhoA high-expressing cells / parental cell line, 3 to 4 days
Method: as §1, §2, §3, §4, §5, §6, §7, §8, §9, §10, §11, §12, §13, §14

[11] = tested on: NIH3T3 cells overexpressing PDGF-R-Del; test: MTT cell viability, PDGF-R-Del overexpressing cells vs parental line; conditions: PDGF-R-Del high-expressing cells / parental cell line, 3 to 4 days
Method: as §1, §2, §3, §4, §5, §6, §7, §8, §9, §10, §11, §12, §13, §14

[12] = tested on: NIH3T3 cells overexpressing STAT1; test: MTT cell viability, STAT1 overexpressing cells vs parental line; conditions: STAT1 high-expressing cells / parental cell line, 3 to 4 days
Method: as §1, §2, §3, §4, §5, §6, §7, §8, §9, §10, §11, §12, §13, §15

[13] = tested on: NIH3T3 cells overexpressing PKCepsilon-KN; test: MTT cell viability, PKCepsilon-KN overexpressing cells vs parental line; conditions: 3 to 4 days
Method: as §1, §2, §3, §4, §5, §6, §7, §8, §9, §10, §11, §12, §13, §15

[14] = tested on: NIH3T3 cells, TPA (PKC downreg); test: MTT cell viability, TPA (PKC downreg) cells vs parental line; conditions: 3 to 4 days
Method: as §1, §2, §3, §4, §5, §6, §7, §8, §9, §10, §11, §12, §13, §14

[15] = tested on: NIH3T3 cells overexpressing JNK-DN; test: MTT cell viability, JNK-DN overexpressing cells vs parental line; conditions: JNK-DN high-expressing cells / parental cell line, 3 to 4 days
Method: as §1, §2, §3, §4, §5, §6, §7, §8, §9, §10, §11, §12, §13, §14

[16] = tested on: NIH3T3 cells overexpressing C/EBPa; test: MTT cell viability, C/EBPa overexpressing cells vs parental line; conditions: C/EBPa high-expressing cells / parental cell line, 3 to 4 days
Method: as §1, §2, §3, §4, §5, §6, §7, §8, §9, §10, §11, §12, §13, §15

[17] = tested on: NIH3T3 cells overexpressing C/EBPb; test: MTT cell viability, C/EBPb overexpressing cells vs parental line; conditions: C/EBPb high-expressing cells / parental cell line, 3 to 4 days
Method: as §1, §2, §3, §4, §5, §6, §7, §8, §9, §10, §11, §12, §13, §15

[18] = tested on: NIH3T3 cells overexpressing p33/ING1; test: MTT cell viability, p33/ING1 overexpressing cells vs parental line; conditions: p33/ING1 high-expressing cells / parental cell line, 3 to 4 days
Method: as §1, §2, §3, §4, §5, §6, §7, §8, §9, §10, §11, §12, §13, §14

[19] = tested on: NIH3T3 cells overexpressing T.Tn; test: MTT cell viability, T.Tn overexpressing cells vs parental line; conditions: T.Tn high-expressing cells / parental cell line, 3 to 4 days
Method: as §1, §2, §3, §4, §5, §6, §7, §8, §9, §10, §11, §12, §13, §15

[20] = Bax (first of two Bax lines) high-expressing cells / parental cell line
[21] = Bax (second of two Bax lines) high-expressing cells / parental cell line
[22] = PKCepsilon-KN (first of two lines) high-expressing cells / parental cell line
[23] = PKCepsilon-KN (second of two lines) high-expressing cells / parental cell line

SMILES | logarithmic value of ratio of IC40 values [1] | logarithmic value of ratio of IC40 values [2] | logarithmic value of ratio of IC40 values [3, 20] | logarithmic value of ratio of IC40 values [3, 21] | logarithmic value of ratio of IC40 values [4] | logarithmic value of ratio of IC40 values [5] | logarithmic value of ratio of IC40 values [6] | logarithmic value of ratio of IC40 values [7] | logarithmic value of ratio of IC40 values [8] | logarithmic value of ratio of IC40 values [9] | logarithmic value of ratio of IC40 values [10] | logarithmic value of ratio of IC40 values [11] | logarithmic value of ratio of IC40 values [12] | logarithmic value of ratio of IC40 values [13, 22] | logarithmic value of ratio of IC40 values [13, 23] | logarithmic value of ratio of IC40 values [14] | logarithmic value of ratio of IC40 values [15] | logarithmic value of ratio of IC40 values [16] | logarithmic value of ratio of IC40 values [17] | logarithmic value of ratio of IC40 values [18] | further results
CC(=O)OCOC(=O)CN(CC(=O)OCOC(C)=O)c1ccccc1OCCOc1ccccc1N(CC(=O)OCOC(C)=O)CC(=O)OCOC(C)=O [BAPTA-AM] | −0.22 | −0.40 | 0.15 | 0.00 | 0.00 | −0.10 | 0 | 0.06 | 0.70 | 0.34 | 0.00 | 0.31 | 0.10 | 0.00 | 0.00 | −0.03 | 0.06 | −0.62 | 0.81 | 0.00 | logarithmic value of ratio of IC40 values [19]: 0.11
C[C@@H]1C[C@@H]([C@H](O)CC2CC(=O)NC(=O)C2)C(=O)[C@@H](C)C1 [CHX, cycloheximide] | −0.32 | −0.64 | −0.08 | 0.00 | −0.13 | 0.23 | 0.31 | 0.00 | 0.72 | 0.34 | 0.14 | 0.39 | 0.00 | 0.06 | 0.20 | 0.00 | 0.00 | 0.00 | 0.37 | −0.30 | logarithmic value of ratio of IC40 values [19]: 0.00
O=CN/C=C/c1cc(O)ccc1O [Erbstatin, erbstatin] | −0.05 | −0.05 | 0.27 | 0.04 | 0.05 | 0.05 | −0.2 | 0.06 | 0.20 | 0.08 | 0.14 | 0.00 | 0.04 | −0.12 | 0.00 | 0.00 | 0.11 | 0.11 | 0.48 | 0.11 | logarithmic value of ratio of IC40 values [19]: 0.48
C=C[C@@]1(C)CC(=O)[C@]2(O)[C@@]3(C)[C@@H](O)CCC(C)(C)[C@@H]3[C@H](O)[C@H](OC(C)=O)[C@@]2(C)O1 [Forskolin, forskolin] | −0.46 | 0.28 | 0.00 | −0.26 | 0.56 | 0.51 | −0.09 | −0.05 | 0.88 | 0.72 | 0.47 | 0.51 | 0.51 | 0.00 | 0.00 | −0.17 | −0.22 | 0.00 | 0.93 | 0.63 | logarithmic value of ratio of IC40 values [19]: 0.53
